Consider 28 molecules from ChEMBL document CHEMBL4130453, “Discovery of an Isothiazole-Based Phenylpropanoic Acid GPR120 Agonist as a Development Candidate for Type 2 Diabetes” (ACS Med Chem Lett, 2017).

As a reminder, the EC50 is the concentration giving half of the maximal effect.

The target of data set [1] is Free fatty acid receptor 4 (Homo sapiens, UniProt Q5NUL3). The experiment in a line: Agonist activity at human GPR120 short splice variant expressed in HEK293 cells assessed as increase in intracellular calcium flux incubated for 30 mins measured for 300 secs at 1 sec interval by Fluo-4 NW dye based FLIPR assay. Format: functional, cell-based.
For data set [2], the target named is T1, Free fatty acid receptor 4 (Homo sapiens, UniProt Q5NUL3).
T1 sequence (Q5NUL3 whole entry): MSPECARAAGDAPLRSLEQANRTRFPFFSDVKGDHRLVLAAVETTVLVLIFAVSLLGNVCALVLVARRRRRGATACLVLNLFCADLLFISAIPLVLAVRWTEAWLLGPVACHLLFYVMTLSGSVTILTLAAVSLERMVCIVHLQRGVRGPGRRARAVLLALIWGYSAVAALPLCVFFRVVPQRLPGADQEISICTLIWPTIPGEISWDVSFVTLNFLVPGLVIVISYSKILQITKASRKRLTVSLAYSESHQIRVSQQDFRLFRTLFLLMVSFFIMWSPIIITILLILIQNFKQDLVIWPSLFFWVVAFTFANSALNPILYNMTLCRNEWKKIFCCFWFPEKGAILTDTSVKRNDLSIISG
The experiment in a line: Agonist activity at PK-tagged human GPR120 long isoform expressed in CHOK1 cells co-expressing EA-tagged beta-arrestin assessed as beta-gal enzyme complex formation after 90 mins by enzyme fragment complementation assay. Format: cell-based.

Data set [3] is described as follows: Metabolic stability in human liver microsomes assessed as parent compound remaining measured at 10 mins. It is filed as ADME, microsome. Conditions: read-out: Stability. (Liver microsomes are a subcellular fraction often used to study metabolism.)
Data set [4] can be described thus: Metabolic stability in mouse liver microsomes assessed as parent compound remaining measured at 10 mins. Format: ADME, microsome. Conditions: for remaining at 10 min: liver microsomes, read-out: Stability.
The nature of data set [5]: Metabolic stability in rat liver microsomes assessed as parent compound remaining measured at 10 mins. Format: ADME, microsome. The following applies: for remaining at 10 min: liver microsomes, read-out: Stability.
The target in data set [6] is T2, Free fatty acid receptor 4 (Mus musculus, UniProt Q7TMA4).
T2 sequence (Q7TMA4 whole entry): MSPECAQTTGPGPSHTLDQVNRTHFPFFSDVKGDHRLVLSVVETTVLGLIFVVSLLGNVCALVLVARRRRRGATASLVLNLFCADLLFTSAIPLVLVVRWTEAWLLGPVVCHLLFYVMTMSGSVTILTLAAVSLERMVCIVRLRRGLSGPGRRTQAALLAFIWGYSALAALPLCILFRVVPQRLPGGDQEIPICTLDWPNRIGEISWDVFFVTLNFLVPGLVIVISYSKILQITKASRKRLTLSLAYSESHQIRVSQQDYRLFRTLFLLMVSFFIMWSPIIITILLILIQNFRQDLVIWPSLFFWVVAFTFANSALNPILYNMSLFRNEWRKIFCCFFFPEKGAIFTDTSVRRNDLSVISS
In words: Agonist activity at mouse GPR120 by calcium flux assay. Format: functional. (In general: Calcium flux is commonly read through the fluorescence of an indicator in the cells.)

Data set [7] deals with Free fatty acid receptor 1 (Homo sapiens, UniProt O14842). In words: Agonist activity at human GPR40 by calcium flux assay. It is filed as functional.
Free fatty acid receptor 1, sequence (O14842 whole entry): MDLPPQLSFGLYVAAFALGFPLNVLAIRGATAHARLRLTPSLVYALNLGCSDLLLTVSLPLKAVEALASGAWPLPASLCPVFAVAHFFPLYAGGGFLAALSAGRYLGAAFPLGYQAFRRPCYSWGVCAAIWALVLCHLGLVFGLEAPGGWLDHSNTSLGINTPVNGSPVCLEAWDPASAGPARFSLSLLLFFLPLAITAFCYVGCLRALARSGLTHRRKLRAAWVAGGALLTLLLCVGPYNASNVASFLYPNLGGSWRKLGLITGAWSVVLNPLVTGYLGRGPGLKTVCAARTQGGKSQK
In the next data set the test system is Mus musculus. In words: Antidiabetic activity in diet-induced obese C57BL/6 mouse assessed as reduction in plasma glucose delta AUC level at 1 mg/kg, po administered 30 mins prior to glucose challenge measured 90 mins post glucose challenge by OGTT relative to control. It is filed as functional. On the set-up: scale not given: the % may be the effect or the level left.

As for `N#Cc1ccc(-c2nsc(C(F)(F)F)c2COc2c(F)cc(CCC(=O)O)cc2F)cc1`, the concentration for a half-maximal effect (EC50) in data set [1] was 0.672 µM.

With `O=C(O)CCc1ccc(OCc2c(-c3ccc(Cl)cc3)nsc2C(F)(F)F)c(Br)c1`, the concentration giving a half-maximal response (EC50) in data set [1] came to 0.031 µM.

For the molecule `O=C(O)CCc1ccc(OCc2c(-c3ccc(Cl)cc3)nsc2C(F)(F)F)c(F)c1F`, in data set [1], the EC50 was 0.086 µM.

Take `COc1ccc(-c2nsc(C(F)(F)F)c2COc2c(F)cc(CCC(=O)O)cc2F)cc1`: in data set [1], the EC50 worked out at 0.075 µM.

For the molecule `O=C(O)CCc1c(F)c(F)c(OCc2c(-c3ccc(Cl)cc3)nsc2C(F)(F)F)c(F)c1F`, in data set [1], the EC50 worked out at 0.173 µM.

Take `O=C(O)CCc1ccc(OCc2c(-c3ccc(Cl)cc3)nsc2C(F)(F)F)cc1C(F)(F)F`: the EC50 in data set [1] came to 0.236 µM.

Regarding `O=C(O)CCc1cc(F)c(OCc2c(-c3ccc(OC(F)(F)F)cc3)nsc2C(F)(F)F)c(F)c1`, the concentration for a half-maximal effect (EC50) in data set [1] is 0.314 µM; in data set [2], 0.099 µM.

Take `O=C(O)CCc1cc(F)c(OCc2c(-c3ccc(C(F)(F)F)cc3)nsc2C(F)(F)F)c(F)c1`: in data set [1], the EC50 came out at 0.108 µM.

With `O=C(O)CCc1cc(F)c(OCc2c(-c3ccc(Cl)c(F)c3)nsc2C(F)(F)F)c(F)c1`, the EC50 worked out at 0.025 µM in data set [1], 0.102 µM in data set [6] and 3 µM in data set [7]. Besides, the remaining at 10 min in data set [3], in data set [4] and in data set [5] was 87 to 100% in each case.

On to `CCc1ccc(-c2nsc(C(F)(F)C(F)(F)F)c2COc2ccc(CCC(=O)O)c(C)c2C)cc1`, for which the EC50 in data set [1] stood at 0.332 µM.

With `Cc1c(CCC(=O)O)cc(F)c(OCc2c(-c3ccc(Cl)cc3)nsc2C(F)(F)F)c1F`, the concentration giving a half-maximal response (EC50) in data set [1] came to 0.099 µM.

Regarding `Cc1c(CCC(=O)O)ccc(OCc2c(C(F)(F)F)nsc2-c2ccc(Cl)cc2)c1C`, the EC50 in data set [1] was found to be 0.094 µM; in data set [2], 0.105 µM.

In the case of `CCc1ccc(-c2nsc(C(C)C)c2COc2ccc(CCC(=O)O)c(C)c2C)cc1`, the EC50 in data set [1] amounted to 1.64 µM.

With `CCc1ccc(-c2snc(Cl)c2COc2ccc(CCC(=O)O)c(C)c2C)cc1`, in data set [1], the EC50 amounted to 0.056 µM. In addition, the remaining at 10 min came out at 76% in data set [3] and 102% in data set [4].

Turning to `N#C[C@@H]1C[C@@H]2C[C@@H]2N1C(=O)[C@@H](N)C12CC3CC(CC(O)(C3)C1)C2` [SAXAGLIPTIN ANHYDROUS], the Activity with Mus musculus was found to be 87%.

Consider `CCc1ccc(-c2nsc(CC)c2COc2ccc(CCC(=O)O)c(C)c2C)cc1`, for which the EC50 in data set [1] is 0.68 µM.

Turning to `O=C(O)CCc1cc(F)c(OCc2c(-c3ccc(Cl)cc3)nsc2C(F)(F)F)c(F)c1`, the EC50 in data set [1] came to 0.051 µM.

`Cc1snc(-c2ccc(Cl)cc2)c1COc1ccc(CCC(=O)O)c(C)c1C`: the EC50 in data set [1] was 0.106 µM; in data set [2], 0.128 µM. For the same molecule, the remaining at 10 min in data set [3] worked out at 74%; in data set [4], 35%; in data set [5] it was 57%.

As to `CCc1ccc(-c2nsc(C(F)(F)F)c2COc2ccc(CCC(=O)O)c(C)c2C)cc1`, the figures for the EC50 in data set [1] and in data set [2] were 0.12 µM and 0.21 µM, respectively.

Consider `CCc1ccc(-c2sncc2COc2ccc(CCC(=O)O)c(C)c2C)cc1`, for which the EC50 in data set [1] came out at 0.191 µM.

For `CCc1ccc(-c2nsc(OC)c2COc2ccc(CCC(=O)O)c(C)c2C)cc1`, the EC50 in data set [1] came out at 0.92 µM.

For `Cc1c(CCC(=O)O)ccc(OCc2c(-c3ccc(Cl)cc3)nsc2C(F)(F)F)c1C`, the EC50 in data set [1] amounted to 0.155 µM. Moreover, the remaining at 10 min in data set [3] came out at 104%. Also, the Stability was 127% in data set [4] (microsomes, 10 min) and 133% in data set [5] (microsomes, 10 min).

Take `CCc1cc(CCC(=O)O)ccc1OCc1c(-c2ccc(Cl)cc2)nsc1C(F)(F)F`: the EC50 in data set [1] came out at 0.202 µM.

Consider `Cc1cc(OCc2c(-c3ccc(Cl)cc3)nsc2C(F)(F)F)c(F)cc1CCC(=O)O`, for which, in data set [1], the EC50 was found to be 0.121 µM.

On to `O=C(O)CCc1cc(F)c(OCc2c(-c3ccc(Cl)cc3)nsc2C(F)(F)F)c(F)c1F`, for which the EC50 in data set [1] was 0.104 µM.

In the case of `Cc1c(CCC(=O)O)ccc(OCc2csnc2-c2ccc(Cl)cc2)c1C`, in data set [1], the EC50 was determined as 0.215 µM. Besides, the remaining at 10 min in data set [3] was found to be 86%; in data set [4], 73%; in data set [5], 71%.

Regarding `CCc1ccc(-c2nsc(C(F)(F)F)c2COc2c(F)cc(CCC(=O)O)cc2F)cc1`, the EC50 in data set [1] was 0.034 µM.

As for `O=C(O)CCc1cc(F)c(OCc2c(-c3ccccc3)nsc2C(F)(F)F)c(F)c1`, the EC50 in data set [1] was found to be 0.16 µM.
